ChEMBL document CHEMBL4270607, “Identification of crizotinib derivatives as potent SHIP2 inhibitors for the treatment of Alzheimer's disease” (Eur J Med Chem, 2018)
Activity calls are given as the source filed them. No cut-off for these calls is given here.

How the values were obtained:
[1] = target: T1, Phosphatidylinositol 3,4,5-trisphosphate 5-phosphatase 2 (Mus musculus) (UniProt Q6P549); assay: Inhibition of SHIP2 in mouse HT22 cells assessed as decrease in PI(3,4)P2 production at 10 uM after 24 hrs by mKate2-TAPP1-PH based fluorescence imaging method; type: cell-based
T1 sequence (whole entry): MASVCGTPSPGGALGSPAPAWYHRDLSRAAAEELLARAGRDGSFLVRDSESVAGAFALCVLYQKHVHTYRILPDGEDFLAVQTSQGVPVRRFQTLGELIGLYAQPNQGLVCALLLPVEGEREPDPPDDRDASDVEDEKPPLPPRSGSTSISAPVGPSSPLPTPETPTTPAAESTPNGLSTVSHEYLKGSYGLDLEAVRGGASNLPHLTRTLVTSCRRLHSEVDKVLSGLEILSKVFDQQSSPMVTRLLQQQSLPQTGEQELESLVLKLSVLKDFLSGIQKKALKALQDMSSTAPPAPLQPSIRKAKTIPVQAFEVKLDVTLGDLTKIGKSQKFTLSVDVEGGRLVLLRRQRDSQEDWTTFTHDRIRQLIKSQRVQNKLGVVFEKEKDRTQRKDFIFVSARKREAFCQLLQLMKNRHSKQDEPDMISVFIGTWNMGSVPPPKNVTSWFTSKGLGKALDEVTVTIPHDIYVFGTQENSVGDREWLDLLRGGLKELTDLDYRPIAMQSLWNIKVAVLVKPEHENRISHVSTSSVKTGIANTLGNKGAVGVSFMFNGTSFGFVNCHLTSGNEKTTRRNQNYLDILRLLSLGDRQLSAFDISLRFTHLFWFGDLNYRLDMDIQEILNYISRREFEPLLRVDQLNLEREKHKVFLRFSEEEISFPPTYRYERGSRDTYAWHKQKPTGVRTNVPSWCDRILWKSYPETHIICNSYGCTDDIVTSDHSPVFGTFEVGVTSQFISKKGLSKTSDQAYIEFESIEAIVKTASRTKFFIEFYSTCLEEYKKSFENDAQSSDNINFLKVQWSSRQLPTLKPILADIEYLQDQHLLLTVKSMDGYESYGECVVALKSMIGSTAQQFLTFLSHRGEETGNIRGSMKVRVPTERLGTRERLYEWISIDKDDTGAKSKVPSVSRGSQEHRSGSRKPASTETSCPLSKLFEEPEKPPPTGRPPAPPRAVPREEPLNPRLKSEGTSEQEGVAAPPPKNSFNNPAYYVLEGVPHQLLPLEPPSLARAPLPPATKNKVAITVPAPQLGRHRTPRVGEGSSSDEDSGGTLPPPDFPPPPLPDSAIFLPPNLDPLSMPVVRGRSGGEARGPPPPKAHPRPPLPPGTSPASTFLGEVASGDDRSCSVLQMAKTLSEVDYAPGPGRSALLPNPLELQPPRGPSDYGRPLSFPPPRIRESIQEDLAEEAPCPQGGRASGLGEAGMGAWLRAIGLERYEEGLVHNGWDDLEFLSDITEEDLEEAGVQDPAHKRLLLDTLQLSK

[2] = target: Glycogen synthase kinase-3 beta (Mus musculus) (UniProt Q9WV60); assay: Inhibition of amyloid beta (1 to 42)-induced GSK3beta activation in mouse HT22 cells assessed as increase in GSK3beta phosphorylation at Ser9 residues at 10 uM after 24 hrs by ELISA; type: cell-based
[3] = Tmax in Sprague-Dawley rat at 10 mg/kg, po administered as single dose by LC-MS/MS analysis; type: ADME, organism-based; details: in vivo
[4] = Drug uptake in blood of Sprague-Dawley rat at 5 mg/kg, iv measured at 2 hrs by LC-MS/MS analysis; type: ADME, organism-based; details: read-out: Drug uptake
[5] = Cmax in Sprague-Dawley rat at 10 mg/kg, po administered as single dose by LC-MS/MS analysis; type: ADME, organism-based; parameters: dose 10 mg/kg, route oral; details: in vivo
[6] = Drug uptake in brain of Sprague-Dawley rat at 5 mg/kg, iv measured at 5 hrs by LC-MS/MS analysis; type: ADME, organism-based; details: read-out: Drug uptake
[7] = Apparent volume of distribution in Sprague-Dawley rat at 2 mg/kg, iv administered as single dose by LC-MS/MS analysis; type: ADME, organism-based; details: in vivo, read-out: Vz
[8] = Clearance in Sprague-Dawley rat at 2 mg/kg, iv administered as single dose by LC-MS/MS analysis; type: ADME, organism-based; details: in vivo
[9] = Drug uptake in brain of Sprague-Dawley rat at 5 mg/kg, iv measured at 0.5 hrs by LC-MS/MS analysis; type: ADME, organism-based; details: read-out: Drug uptake
[10] = MRT (0 to infinity) in Sprague-Dawley rat at 10 mg/kg, po administered as single dose by LC-MS/MS analysis; type: ADME, organism-based; details: in vivo
[11] = AUC (0 to t) in Sprague-Dawley rat at 2 mg/kg, iv administered as single dose by LC-MS/MS analysis; type: ADME, organism-based; details: in vivo
[12] = Half life in Sprague-Dawley rat at 10 mg/kg, po administered as single dose by LC-MS/MS analysis; type: ADME, organism-based; details: in vivo
[13] = target: T1, Phosphatidylinositol 3,4,5-trisphosphate 5-phosphatase 2 (Mus musculus); assay: Inhibition of SHIP2 in H2O2-stimulated mouse HT22 cells assessed as decrease in PI(3,4)P2 production at 10 uM incubated for 30 mins followed by H2O2 stimulation for 5 mins in presence of PTEN inhibitor VO-Ohpic trihydrate by ELISA
[14] = Tmax in Sprague-Dawley rat at 2 mg/kg, iv administered as single dose by LC-MS/MS analysis; type: ADME, organism-based; details: in vivo
[15] = AUC (0 to infinity) in Sprague-Dawley rat at 2 mg/kg, iv administered as single dose by LC-MS/MS analysis; type: ADME, organism-based; parameters: dose 2 mg/kg, time infinity, route intravenous; details: in vivo
[16] = Drug uptake in brain of Sprague-Dawley rat at 5 mg/kg, iv measured at 2 hrs by LC-MS/MS analysis; type: ADME, organism-based; details: read-out: Drug uptake
[17] = Oral bioavailability in Sprague-Dawley rat at 2 mg/kg, iv administered as single dose by LC-MS/MS analysis; type: ADME, organism-based; details: in vivo
[18] = AUC (0 to infinity) in Sprague-Dawley rat at 10 mg/kg, po administered as single dose by LC-MS/MS analysis; type: ADME, organism-based; parameters: dose 10 mg/kg, route oral, time infinity; details: in vivo
[19] = Drug uptake in blood of Sprague-Dawley rat at 5 mg/kg, iv measured at 1 hr by LC-MS/MS analysis; type: ADME, organism-based; details: read-out: Drug uptake
[20] = AUC (0 to t) in Sprague-Dawley rat at 10 mg/kg, po administered as single dose by LC-MS/MS analysis; type: ADME, organism-based; details: in vivo
[21] = MRT (0 to t) in Sprague-Dawley rat at 10 mg/kg, po administered as single dose by LC-MS/MS analysis; type: ADME, organism-based; details: in vivo
[22] = MRT (0 to t) in Sprague-Dawley rat at 2 mg/kg, iv administered as single dose by LC-MS/MS analysis; type: ADME, organism-based; details: in vivo
[23] = Cmax in Sprague-Dawley rat at 2 mg/kg, iv administered as single dose by LC-MS/MS analysis; type: ADME, organism-based; parameters: dose 2 mg/kg, route intravenous; details: in vivo

Chain of Glycogen synthase kinase-3 beta (Mus musculus) (Q9WV60 whole entry, looked up): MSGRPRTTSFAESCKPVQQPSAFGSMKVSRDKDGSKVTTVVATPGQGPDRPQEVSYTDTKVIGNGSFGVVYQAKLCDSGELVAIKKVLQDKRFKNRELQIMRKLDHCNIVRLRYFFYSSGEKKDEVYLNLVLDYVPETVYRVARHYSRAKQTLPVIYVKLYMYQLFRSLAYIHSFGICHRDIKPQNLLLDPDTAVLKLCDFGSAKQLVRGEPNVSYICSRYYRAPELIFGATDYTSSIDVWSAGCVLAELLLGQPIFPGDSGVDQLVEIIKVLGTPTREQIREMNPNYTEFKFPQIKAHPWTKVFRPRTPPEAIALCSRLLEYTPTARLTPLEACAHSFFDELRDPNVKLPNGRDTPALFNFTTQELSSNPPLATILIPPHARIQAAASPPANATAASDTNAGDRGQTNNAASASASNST

For `O=C(NCc1c(F)cccc1F)c1sccc1OCc1ccc(Cl)cc1Cl`, the inhibition [1] was “Active” and the inhibition [2] was “Active”.
With `C[C@@H](Oc1cncc(-c2cnc(N)nc2)c1)c1c(Cl)ccc(F)c1Cl` the Tmax [3] was 1.75 h, the concentration at 2 h [4] was 559 ng/mL and the Cmax [5] was 636 ng/mL. The concentration at 5 h [6] was 194 ng/mL, the Vd [7] was 2.3 L/kg and the clearance [8] was 19.5 mL/min/kg. For the same compound, the concentration at 0.5 h [9] was 4510 ng/mL, the MRT inf [10] was 3.19 h and the AUC(0-t) [11] was 1700 ng·h/mL. For the same compound, the half-life [12] was 1.53 h, the inhibition [13] was “Active” and the inhibition [1] was “Active”. The Tmax [14] was 4.8 min, the AUC(0-inf) [15] was 1720 ng·h/mL and the concentration at 2 h [16] was 1440 ng/mL. The bioavailability [17] was 33.3%, the AUC(0-inf) [18] was 2880 ng·h/mL and the concentration at 1 h [19] was 1180 ng/mL. The inhibition [2] was “Active”, the AUC(0-t) [20] was 2830 ng·h/mL and the MRT last [21] was 3.06 h. The MRT last [22] was 1.28 h and the Cmax [23] was 1480 ng/mL.
For `N#Cc1ccc(-c2cncc(OCc3ccc(Cl)cc3Cl)c2)s1`, the inhibition [1] was “Active”.
